US12486495B2, “Cardiac organoid, manufacturing method therefor, and method for evaluating drug toxicity by using same” (priority 2020, dated 2025)

System: cardiac organoid

## COc1ccc(CCN(C)CCCC(C#N)(c2ccc(OC)c(OC)c2)C(C)C)cc1OC (stereo not shown) [verapamil]
FIG. 13A, heat maps for beating velocity, after drug treatment
  beating velocity after treatment with calcium antagonist: reduced
FIG. 13A, after washing and culturing for 1 hour
  beating velocity after washing: again increased
Comparison of three treatment amount groups (100 nM, 1 μM, 10 μM), FIG. 13B/13C
  conduction displacement after treatment: highest in a 1 μM group
Comparison of three treatment amount groups, FIG. 13B/13C
  conduction displacement after washing: highest in the 1 μM group
Comparison of three treatment amount groups, FIG. 13C
  beat rate variation after washing: highest in the 10 μM group
Inferred from beat rate variation at low treatment amount
  drug toxicity of the heart, comparison: higher than that of nifedipine
Inferred from beat rate variation of the cardiac organoid
  treatment amount at which side effects in the heart in vivo may be caused: ≥ 100 nM
